Assay results as given in the supplement of paper PMC11208160.

experiment: recombinant UMI read abundance after kanamycin selection (control-corrected) (log10(CPM+1)); higher = more efficient recombination; extreme values may be limits of the assay; sequences stand for … in AGTGCAGAGAAAATCGGCCAGTTTTCTCTGCCTGCAGTCCGCATGCCGTGGGACCCCTTGGGTTCTAACCTGTTGCCTAGATTTATGCAGCGGACTGCCTTTCTCCCAAAGTGATAAACCGG…AGGTTGGTTTCACT; site = the 11-nt donor
Method: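 Pooled E. coli donor-specificity screen for the IS621 bridge recombinase. Each library member carries a reprogrammed 11-nt donor and a full-length LE bridge RNA expressed in cis from the natural promoter, with a paired donor-binding loop (8-nt LDG + 4-nt RDG) and a target-binding loop fixed to T5. It is co-electroporated with a T5 target plasmid; recombinase is induced with 0.07 mM IPTG and recombinants are selected on kanamycin. UMIs are counted as CPM, averaged over two biological replicates and corrected by the unselected control. Molecule = full bridge RNA written as DNA, built from the T5 scaffold: LDG = donor specificity nt 1-8, RDG = reverse complement of nt 8-11.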
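Note: IS621 bridge recombinase in Escherichia coli cells against a fixed T5 target plasmid.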

Going from “ACATGTACATGGACCGGTTTTCCCGGTAATCCGTATTTGTG (site ACATCTACTCA)” to “ACATGTACATGGACCGGTTTTCCCGGTAATCCGTATTTGTG (site ACATGTACTCA)”, the “recombinant UMI read abundance (log10)” value rises from 0.00614 to 1.07.

First: ACATGTACATGGACCGGTTTTCCCGGTAATCCGTATTTGTG (site ACATTTACTCA)
Second: ACATTGTCATGGACCGGTTTTCCCGGTAATCCGTATTTGCA (site ACAGTATCTTG)
The “recombinant UMI read abundance (log10)” value of the first is lower: 0 for the first, 1.37 for the second.

Compared with “ACATTGTCATGGACCGGTTTTCCCGGTAATCCGTATTTGCA (site ACATTGTCTTG)”, “ACCAAGTCATGGACCGGTTTTCCCGGTAATCCGTATTTGTG (site ACCAAGTCTCA)” is lower in “recombinant UMI read abundance (log10)” value: 2.75 for the first, 2.15 for the second.

First: ACCAATTCATGGACCGGTTTTCCCGGTAATCCGTATTTGCT (site ACCAATTCTAG)
Second: ACCACGACATGGACCGGTTTTCCCGGTAATCCGTATTTGAC (site ACCACGACTGT)
The “recombinant UMI read abundance (log10)” value of the first is lower: 2.42 for the first, 2.72 for the second.

First: ACCAGCCCATGGACCGGTTTTCCCGGTAATCCGTATTTGCT (site ACCAGCCCTAG)
Second: ACCCCAACATGGACCGGTTTTCCCGGTAATCCGTATTTGAC (site ACCCCAACTGT)
The “recombinant UMI read abundance (log10)” value of the first is lower: 0.0684 for the first, 2.49 for the second.

Compared with “ACCCGTCCATGGACCGGTTTTCCCGGTAATCCGTATTTGAT (site AACCGTCCTAT)”, “ACCCGTCCATGGACCGGTTTTCCCGGTAATCCGTATTTGAT (site ACCCGTCCTAT)” is higher in “recombinant UMI read abundance (log10)” value: 0.00657 for the first, 0.224 for the second.

“ACCCGTCCATGGACCGGTTTTCCCGGTAATCCGTATTTGAT (site AGCCGTCCTAT)” and “ACCCGTCCATGGACCGGTTTTCCCGGTAATCCGTATTTGAT (site ATCCGTCCTAT)” are within 0.2 log units of each other in “recombinant UMI read abundance (log10)” value: 0.0209 for the first, 0.015 for the second.

Going from “ACCCGTCCATGGACCGGTTTTCCCGGTAATCCGTATTTGTA (site ACCCGTCCTTA)” to “ACCGTCTCATGGACCGGTTTTCCCGGTAATCCGTATTTGCA (site ACAGTATCTTG)”, the “recombinant UMI read abundance (log10)” value rises from 0.613 to 0.902.

Going from “ACCGTCTCATGGACCGGTTTTCCCGGTAATCCGTATTTGCA (site ACCGTCTCTTG)” to “ACCGTGACATGGACCGGTTTTCCCGGTAATCCGTATTTGCA (site ACCGTGACTTG)”, the “recombinant UMI read abundance (log10)” value falls from 2.85 to 2.4.

“ACCTAGACATGGACCGGTTTTCCCGGTAATCCGTATTTGGG (site AACTAGACTCC)” and “ACCTAGACATGGACCGGTTTTCCCGGTAATCCGTATTTGGG (site ACATAGACTCC)” are within 0.2 log units of each other in “recombinant UMI read abundance (log10)” value: 0.0442 for the first, 0.00696 for the second.

“ACCTAGACATGGACCGGTTTTCCCGGTAATCCGTATTTGGG (site ACCAAGACTCC)” and “ACCTAGACATGGACCGGTTTTCCCGGTAATCCGTATTTGGG (site ACCCAGACTCC)” are within 0.2 log units of each other in “recombinant UMI read abundance (log10)” value: 0.00495 for the first, 0.00611 for the second.

“ACCTAGACATGGACCGGTTTTCCCGGTAATCCGTATTTGGG (site ACCGAGACTCC)” and “ACCTAGACATGGACCGGTTTTCCCGGTAATCCGTATTTGGG (site ACCTAAACTCC)” are the same in “recombinant UMI read abundance (log10)” value: 0 for the first, 0 for the second.

“ACCTAGACATGGACCGGTTTTCCCGGTAATCCGTATTTGGG (site ACCTACACTCC)” and “ACCTAGACATGGACCGGTTTTCCCGGTAATCCGTATTTGGG (site ACCTAGACTAC)” are within 0.2 log units of each other in “recombinant UMI read abundance (log10)” value: 0.0139 for the first, 0.0239 for the second.

“ACCTAGACATGGACCGGTTTTCCCGGTAATCCGTATTTGGG (site ACCTAGACTCA)” and “ACCTAGACATGGACCGGTTTTCCCGGTAATCCGTATTTGGG (site ACCTAGACTCC)” are within 0.2 log units of each other in “recombinant UMI read abundance (log10)” value: 0.0191 for the first, 0.0334 for the second.

Going from “ACCTAGACATGGACCGGTTTTCCCGGTAATCCGTATTTGGG (site ACCTAGACTCG)” to “ACCTAGACATGGACCGGTTTTCCCGGTAATCCGTATTTGGG (site ACCTAGACTCT)”, the “recombinant UMI read abundance (log10)” value falls from 0.634 to 0.00788.

“ACCTAGACATGGACCGGTTTTCCCGGTAATCCGTATTTGGG (site ACCTAGACTGC)” and “ACCTAGACATGGACCGGTTTTCCCGGTAATCCGTATTTGGG (site ACCTAGACTTC)” are within 0.2 log units of each other in “recombinant UMI read abundance (log10)” value: 0.00778 for the first, 0.00986 for the second.

“ACCTAGACATGGACCGGTTTTCCCGGTAATCCGTATTTGGG (site ACCTAGCCTCC)” and “ACCTAGACATGGACCGGTTTTCCCGGTAATCCGTATTTGGG (site ACCTAGGCTCC)” are within 0.2 log units of each other in “recombinant UMI read abundance (log10)” value: 0.0119 for the first, 0.0977 for the second.

First: ACCTAGACATGGACCGGTTTTCCCGGTAATCCGTATTTGGG (site ACCTAGTCTCC)
Second: ACCTAGACATGGACCGGTTTTCCCGGTAATCCGTATTTGGG (site ACCTATACTCC)
The “recombinant UMI read abundance (log10)” value of the first is lower: 0.0195 for the first, 0.333 for the second.

“ACCTAGACATGGACCGGTTTTCCCGGTAATCCGTATTTGGG (site ACCTCGACTCC)” and “ACCTAGACATGGACCGGTTTTCCCGGTAATCCGTATTTGGG (site ACCTGGACTCC)” are within 0.2 log units of each other in “recombinant UMI read abundance (log10)” value: 0.00246 for the first, 0.0143 for the second.

“ACCTAGACATGGACCGGTTTTCCCGGTAATCCGTATTTGGG (site ACCTTGACTCC)” and “ACCTAGACATGGACCGGTTTTCCCGGTAATCCGTATTTGGG (site ACGTAGACTCC)” are within 0.2 log units of each other in “recombinant UMI read abundance (log10)” value: 0.0253 for the first, 0.0154 for the second.

“ACCTAGACATGGACCGGTTTTCCCGGTAATCCGTATTTGGG (site ACTTAGACTCC)” and “ACCTAGACATGGACCGGTTTTCCCGGTAATCCGTATTTGGG (site AGCTAGACTCC)” are within 0.2 log units of each other in “recombinant UMI read abundance (log10)” value: 0.0151 for the first, 0.0336 for the second.

“ACCTAGACATGGACCGGTTTTCCCGGTAATCCGTATTTGGG (site ATCTAGACTCC)” and “ACCTAGACATGGACCGGTTTTCCCGGTAATCCGTATTTGGG (site CCCTAGACTCC)” are within 0.2 log units of each other in “recombinant UMI read abundance (log10)” value: 0.015 for the first, 0.00828 for the second.

“ACCTAGACATGGACCGGTTTTCCCGGTAATCCGTATTTGGG (site GCCTAGACTCC)” and “ACCTAGACATGGACCGGTTTTCCCGGTAATCCGTATTTGGG (site TCCTAGACTCC)” are within 0.2 log units of each other in “recombinant UMI read abundance (log10)” value: 0.00312 for the first, 0.0161 for the second.

“ACCTAGCCATGGACCGGTTTTCCCGGTAATCCGTATTTGCC (site ACCTAGCCTGG)” and “ACCTAGCCATGGACCGGTTTTCCCGGTAATCCGTATTTGCC (site CCCTAGCCTGG)” are the same in “recombinant UMI read abundance (log10)” value: 0 for the first, 0 for the second.

“ACCTAGCCATGGACCGGTTTTCCCGGTAATCCGTATTTGCC (site GCCTAGCCTGG)” and “ACCTAGCCATGGACCGGTTTTCCCGGTAATCCGTATTTGCC (site TCCTAGCCTGG)” are the same in “recombinant UMI read abundance (log10)” value: 0 for the first, 0 for the second.

“ACCTAGGCATGGACCGGTTTTCCCGGTAATCCGTATTTGGG (site ACCTAGACTCC)” and “ACCTAGGCATGGACCGGTTTTCCCGGTAATCCGTATTTGGG (site ACCTAGCCTCC)” are within 0.2 log units of each other in “recombinant UMI read abundance (log10)” value: 0.00318 for the first, 0.0364 for the second.

“ACCTAGGCATGGACCGGTTTTCCCGGTAATCCGTATTTGGG (site ACCTAGGCTCC)” and “ACCTAGGCATGGACCGGTTTTCCCGGTAATCCGTATTTGGG (site ACCTAGTCTCC)” are the same in “recombinant UMI read abundance (log10)” value: 0.0121 for the first, 0.0121 for the second.

“ACCTCGACATGGACCGGTTTTCCCGGTAATCCGTATTTGGG (site ACCTAGACTCC)” and “ACCTCGACATGGACCGGTTTTCCCGGTAATCCGTATTTGGG (site ACCTCGACTCC)” are within 0.2 log units of each other in “recombinant UMI read abundance (log10)” value: 0.0526 for the first, 0.00574 for the second.

“ACCTCGACATGGACCGGTTTTCCCGGTAATCCGTATTTGGG (site ACCTGGACTCC)” and “ACCTCGACATGGACCGGTTTTCCCGGTAATCCGTATTTGGG (site ACCTTGACTCC)” are within 0.2 log units of each other in “recombinant UMI read abundance (log10)” value: 0.0333 for the first, 0 for the second.

“ACCTCTACATGGACCGGTTTTCCCGGTAATCCGTATTTGTG (site ACATCTACTCA)” and “ACCTCTACATGGACCGGTTTTCCCGGTAATCCGTATTTGTG (site ACCTCTACTCA)” are within 0.2 log units of each other in “recombinant UMI read abundance (log10)” value: 0.014 for the first, 0.0203 for the second.

“ACCTCTACATGGACCGGTTTTCCCGGTAATCCGTATTTGTG (site ACGTCTACTCA)” and “ACCTCTACATGGACCGGTTTTCCCGGTAATCCGTATTTGTG (site ACTTCTACTCA)” are within 0.2 log units of each other in “recombinant UMI read abundance (log10)” value: 0.0131 for the first, 0.0231 for the second.

“ACCTGGACATGGACCGGTTTTCCCGGTAATCCGTATTTGGG (site ACCTAGACTCC)” and “ACCTGGACATGGACCGGTTTTCCCGGTAATCCGTATTTGGG (site ACCTCGACTCC)” are within 0.2 log units of each other in “recombinant UMI read abundance (log10)” value: 0.00306 for the first, 0.00694 for the second.

“ACCTGGACATGGACCGGTTTTCCCGGTAATCCGTATTTGGG (site ACCTGGACTCC)” and “ACCTGGACATGGACCGGTTTTCCCGGTAATCCGTATTTGGG (site ACCTTGACTCC)” are within 0.2 log units of each other in “recombinant UMI read abundance (log10)” value: 0.0305 for the first, 0.0114 for the second.

Compared with “ACCTTCGCATGGACCGGTTTTCCCGGTAATCCGTATTTGGC (site ACCTTCGCTGC)”, “ACCTTTCCATGGACCGGTTTTCCCGGTAATCCGTATTTGCT (site ACCTTTCCTAG)” is lower in “recombinant UMI read abundance (log10)” value: 1.56 for the first, 0 for the second.

Going from “ACGAAAACATGGACCGGTTTTCCCGGTAATCCGTATTTGTT (site ACGAAAACTAA)” to “ACGAAACCATGGACCGGTTTTCCCGGTAATCCGTATTTGGA (site ACGAAACCTTC)”, the “recombinant UMI read abundance (log10)” value falls from 1.37 to 0.

Going from “ACGAAGGCATGGACCGGTTTTCCCGGTAATCCGTATTTGAC (site ACGAAGGCTGT)” to “ACGAAGTCATGGACCGGTTTTCCCGGTAATCCGTATTTGCA (site ACGAAGTCTTG)”, the “recombinant UMI read abundance (log10)” value rises from 2.46 to 3.09.
